Results reported in patent publication US9771341B2, “Piperazine carbamates and methods of making and using same” (Abide Therapeutics, Inc., priority 2015, dated 2017).

Legend:
Format in all cases: biochemical
MAGL = target: T1, MAGL (Mus musculus, UniProt O35678); assay: In vitro competitive activity-based protein profiling (mouse), MAGL; conditions: for IC50: mouse brain membrane fraction or cell lysates, 30 min preincubation at 37° C, FP-Rh probe; for inhibition at 1 µM: mouse proteome, in vitro, read-out: % Inhibition at 1 μM MAGL
T1 construct: Proteomes (mouse brain membrane fraction or cell lysates); from tissue; host or cells: mouse brain membrane fraction (or unspecified cell lysates)
T1 sequence (O35678 1-303): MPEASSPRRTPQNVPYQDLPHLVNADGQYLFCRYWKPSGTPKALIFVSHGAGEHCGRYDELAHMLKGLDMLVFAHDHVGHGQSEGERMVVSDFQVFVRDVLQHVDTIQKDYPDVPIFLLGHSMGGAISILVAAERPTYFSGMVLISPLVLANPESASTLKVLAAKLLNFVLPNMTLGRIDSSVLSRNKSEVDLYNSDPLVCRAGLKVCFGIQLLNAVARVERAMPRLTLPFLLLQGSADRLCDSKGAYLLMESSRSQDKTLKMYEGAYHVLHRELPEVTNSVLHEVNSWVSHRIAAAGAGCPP
Description: (§1) In Vitro Competitive Activity-Based Protein Profiling (Mouse).
(§2) Proteomes (mouse brain membrane fraction or cell lysates) (50 μL, 1.0 mg/mL total protein concentration) were preincubated with varying concentrations of inhibitors at 37° C. After 30 min, FP-Rh (1.0 μL, 50 μM in DMSO) was added and the mixture was incubated for another 30 min at 37° C. Reactions were quenched with SDS loading buffer (50 μL-4×) and run on SDS-PAGE.

FAAH = target: T2, FAAH (Mus musculus, UniProt O08914); assay: In vitro competitive activity-based protein profiling (mouse), FAAH; conditions: for IC50: mouse brain membrane fraction or cell lysates, 30 min preincubation at 37° C, FP-Rh probe; for inhibition at 1 µM: mouse proteome, in vitro
T2 construct: Proteomes (mouse brain membrane fraction or cell lysates); from tissue; host or cells: mouse brain membrane fraction (or unspecified cell lysates)
T2 sequence (O08914 1-579): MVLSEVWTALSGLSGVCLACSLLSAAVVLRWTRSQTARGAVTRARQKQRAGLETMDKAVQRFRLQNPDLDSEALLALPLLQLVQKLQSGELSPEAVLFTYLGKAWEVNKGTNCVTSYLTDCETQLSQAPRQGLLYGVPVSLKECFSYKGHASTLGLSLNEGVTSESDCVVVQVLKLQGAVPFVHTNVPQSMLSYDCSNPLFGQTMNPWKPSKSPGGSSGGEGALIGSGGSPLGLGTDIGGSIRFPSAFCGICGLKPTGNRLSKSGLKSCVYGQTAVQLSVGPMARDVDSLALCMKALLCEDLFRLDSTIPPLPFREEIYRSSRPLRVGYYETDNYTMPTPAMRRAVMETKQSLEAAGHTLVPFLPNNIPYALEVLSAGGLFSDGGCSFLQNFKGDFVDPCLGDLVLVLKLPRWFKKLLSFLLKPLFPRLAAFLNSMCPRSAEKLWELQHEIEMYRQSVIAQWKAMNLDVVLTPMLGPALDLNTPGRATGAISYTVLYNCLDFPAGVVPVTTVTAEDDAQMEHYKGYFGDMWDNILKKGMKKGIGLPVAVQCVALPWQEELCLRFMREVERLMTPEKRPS
Description: as §1
as §2, with “SDS-PAGE. Following gel imaging, serine hydrolase activity was determined by measuring fluorescent intensity of gel bands corresponding to MAGL, ABHD6 and FAAH using ImageJ 1.43u software.” for “SDS-PAGE.”

ABHD6 = target: T3, ABHD6 (Mus musculus, UniProt Q8R2Y0); assay: In vitro competitive activity-based protein profiling (mouse), ABHD6; conditions: for IC50: mouse brain membrane fraction or cell lysates, 30 min preincubation at 37° C, FP-Rh probe; for inhibition at 1 µM: mouse proteome, in vitro, read-out: % Inhibition at 1 μM ABHD6
T3 construct: Proteomes (mouse brain membrane fraction or cell lysates); from tissue; host or cells: mouse brain membrane fraction (or unspecified cell lysates)
T3 sequence (Q8R2Y0 1-336): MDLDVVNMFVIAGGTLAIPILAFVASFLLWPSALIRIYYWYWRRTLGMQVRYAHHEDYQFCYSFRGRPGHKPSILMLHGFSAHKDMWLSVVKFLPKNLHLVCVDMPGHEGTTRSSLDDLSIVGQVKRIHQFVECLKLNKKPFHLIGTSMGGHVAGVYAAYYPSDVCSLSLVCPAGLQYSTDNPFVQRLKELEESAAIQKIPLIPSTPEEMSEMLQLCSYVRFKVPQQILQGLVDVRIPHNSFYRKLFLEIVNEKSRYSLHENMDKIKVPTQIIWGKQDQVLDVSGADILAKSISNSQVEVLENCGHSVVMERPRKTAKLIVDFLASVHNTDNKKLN
Description: as §1, §2

| IC50 (MAGL) | IC50 (FAAH) | IC50 (ABHD6) | inhibition at 1 µM (MAGL) | inhibition at 1 µM (FAAH) | inhibition at 1 µM (ABHD6) | SMILES |
| --- | --- | --- | --- | --- | --- | --- |
| < 100 nM | > 1000 nM | > 1000 nM | – | – | – | C#CCO[C@@H]1CCN(c2cc(C(F)(F)F)ccc2CN2CCN(C(=O)OC(C(F)(F)F)C(F)(F)F)CC2)C1 [Example 2, 1,1,1,3,3,3-hexafluoropropan-2-yl (R)-4-(2-(3-(prop-2-yn-1-yloxy)pyrrolidin-1-yl)-4-(trifluoromethyl)benzyl)piperazine-1-carboxylate] |
| < 100 nM | > 1000 nM | 100 to 1000 nM | – | – | – | COC(=O)c1cc(CN2CCN(C(=O)OC(C(F)(F)F)C(F)(F)F)CC2)ccc1N1CCOCC1 [Example 5, 1,1,1,3,3,3-hexafluoropropan-2-yl 4-(3-(methoxycarbonyl)-4-morpholinobenzyl)piperazine-1-carboxylate] |
| 100 to 1000 nM | > 1000 nM | 100 to 1000 nM | > 75% | < 25% | > 75% | COc1c(CN2CCN(C(C)=O)CC2)cccc1CN1CCN(C(=O)OC(C(F)(F)F)C(F)(F)F)CC1 [Example 7, 1,1,1,3,3,3-hexafluoropropan-2-yl 4-(3-((4-acetylpiperazin-1-yl)methyl)-2-methoxybenzyl)piperazine-1-carboxylate] |
| < 100 nM | > 1000 nM | < 100 nM | > 75% | < 25% | > 75% | Cc1c(CN2CCN(C(=O)OC(C(F)(F)F)C(F)(F)F)CC2)cccc1CN1CCN(S(C)(=O)=O)CC1 [Example 8, 1,1,1,3,3,3-hexafluoropropan-2-yl 4-(2-methyl-3-((4-(methylsulfonyl)piperazin-1-yl)methyl)benzyl)piperazine-1-carboxylate] |
| < 100 nM | > 1000 nM | 100 to 1000 nM | > 75% | < 25% | > 75% | COc1c(CN2CCC(F)CC2)cccc1CN1CCN(C(=O)OC(C(F)(F)F)C(F)(F)F)CC1 [Example 9, 1,1,1,3,3,3-hexafluoropropan-2-yl 4-(3-((4-fluoropiperidin-1-yl)methyl)-2-methoxybenzyl)piperazine-1-carboxylate] |
| < 100 nM | > 1000 nM | 100 to 1000 nM | > 75% | < 25% | > 75% | Cc1c(CN2CCC(NS(C)(=O)=O)CC2)cccc1CN1CCN(C(=O)OC(C(F)(F)F)C(F)(F)F)CC1 [Example 10, 1,1,1,3,3,3-hexafluoropropan-2-yl 4-(2-methyl-3-((4-(methylsulfonamido)piperidin-1-yl)methyl)benzyl)piperazine-1-carboxylate] |
| 100 to 1000 nM | > 1000 nM | 100 to 1000 nM | > 75% | < 25% | 25 to 75% | CC(=O)NC1CCN(Cc2cccc(CN3CCN(C(=O)OC(C(F)(F)F)C(F)(F)F)CC3)c2C)CC1 [Example 11, 1,1,1,3,3,3-hexafluoropropan-2-yl 4-(3-((4-acetamidopiperidin-1-yl)methyl)-2-methylbenzyl)piperazine-1-carboxylate] |
| < 100 nM | > 1000 nM | 100 to 1000 nM | > 75% | < 25% | > 75% | Cc1c(CN2CCN(C(=O)OC(C(F)(F)F)C(F)(F)F)CC2)cccc1CN1CCC(F)(F)CC1 [Example 12, 1,1,1,3,3,3-hexafluoropropan-2-yl 4-(3-((4,4-difluoropiperidin-1-yl)methyl)-2-methylbenzyl)piperazine-1-carboxylate] |
| 100 to 1000 nM | > 1000 nM | 100 to 1000 nM | > 75% | < 25% | > 75% | Cc1c(CN2CCCC2)cccc1CN1CCN(C(=O)OC(C(F)(F)F)C(F)(F)F)CC1 [Example 13, 1,1,1,3,3,3-hexafluoropropan-2-yl 4-(2-methyl-3-(pyrrolidin-1-ylmethyl)benzyl)piperazine-1-carboxylate] |
